Experimental data reported in patent publication US10160971B2, “Methods of modulating WARS2” (NATIONAL UNIVERSITY OF SINGAPORE, priority 2014, dated 2018).
Residues, ends and D or L forms follow the SMILES beside them. *: point of attachment. Cbz = O=C(OCc1ccccc1)*

Key:
Wars2 = test: In vivo knock down of Wars2 in rat eye using cholesterol modified siRNA; conditions: F344 rats; 50 μg intravitreously; 48 hours; versus non-targeting siRNA in contralateral eye
Method: Both non-targeting (NT) siRNA and siWars2 were purchased from Dharmacon and formulated in the sterile siRNA buffer provided. Fifty (50) μg of siWars2 was injected intravitreously into one eye of each of three F344 rats in a total volume of 5 μl. The same dose of the NT control siRNA was injected into the contralateral eye of each animal. Retina and choroid were collected after 48 hours, and total RNA was extracted by Trizol (Ambion). cDNA was then synthesized according to the manufacturer's protocol (BioRad).
Real time PCR reactions to measure Wars2 expression were performed with the SYBRgreen mastermix (Qiagen) and normalized to GAPDH mRNA level by using the following primers: […]

[1] = tested on: LASER-induced choroidal neovascularization (CNV); test: Rat model of LASER-induced choroidal neovascularization (CNV); type: in vivo; conditions: Brown Norway rats; bilateral intravitreal injection Day 3 (siRNA 100 μg/eye, Ab 5 μg/eye); fluorescein angiography Day 22
Method: Non-targeting siRNA (negative control), Wars2 siRNA (test agent), and anti-VEGF Ab (positive control) were administered intravitreously into the eyes of Brown Norway female rats aged 6-8 weeks, according to the following design: • Day 1: Bilateral Laser treatment to produce three (3) lesions per eye • Day 3: Bilateral intravitreal injection of negative control, positive control, or test agent • Day 22: In-vivo fluorescein angiography • Day 22: Enucleation of eyes and fixation for future histological analyses • Three (3) groups of five (5) rats were used, as set out in Table 4.
Animals were dilated with 1% Cyclogyl solution and protected from light. Following observable dilation, the animals were sedated with ketamine/xylazine. The fundus of sedated animals was observed and recorded using a Micron III small animal funduscope (Phoenix Research). Laser treatments were performed using a thermal laser which was connected through the Micron III custom laser attachment. […] The resultant fundus images were recorded and evaluated to confirm that the laser had successfully produced a bubble through the Bruch's membrane. […]
All TIFF images were quantified using computerized image-analysis software (ImageJ, NIH, USA). Lesions were then individually traced free-hand in order to quantify the area in pixels and the colour fundus photos were used as a reference for lesion location. […]

human WARS2 mRNA = test: siWARS2 knock down in HEK 293 (QPCR); type: cell-based; conditions: non targeting control = 1; for WARS2 mRNA expression, Experiment 1 / WARS2 mRNA expression, Experiment 2 / WARS2 mRNA expression, Experiment 3 / WARS2 mRNA expression, Experiment 4 / WARS2 mRNA expression, Experiment 5: 120 nM siRNA, QPCR normalized to GAPDH (ddCt); for WARS2 mRNA expression, Average: average of 5 experiments
Method: HEK cells were seeded the day before transfection on 10 cm dish. At a density of ˜50%, transfection was performed using RNAimax (manufacturer's protocol). siRNA was prepared by using a mixture of 120 nM siRNA and 20 μl lipofectamin RNAimax in 1 ml OPTIMEM. Cells were incubated, washed 1× with PBS, and then covered with 5 ml OPTIMEM and the lipofectamin/siRNA mixture added dropwise. Cells were incubated (6 h) and media then changed to (DMEM/10% FBS). RNA was extracted as per protocol (Qiagen). RNA quantification was assessed using Nanodrop and the quality was determined based on OD ratio 260 nm/280 nm. Reverse transcription was performed using 1 μg RNA (Biorad iScript™ cDNA synthesis protocol) and QPCR performed using the QuantiFAST SYBR green protocol.
All samples were analyzed in duplicates and the mean and standard deviation were determined. Specificity of the amplification was determined by a melting curve ranging from 60-95° C. Normalization to GAPDH was performed using the standard ddCt method.

RPL14a = test: Loss of RPL14a on WARS2 over-expression, reversal by proteasome inhibitor; type: cell-based
Method: Cells were lysed in cell lysis buffer (9803, Cell Signaling) containing protease inhibitor (Sigma) and phosphatase inhibitor (Halt Phosphase inhibitor Cocktail, Thermo Scientific) and PMSF (0.5 mM Active Motif). Cell lysate was then briefly sonicated and centrifuged for 10 minutes at 14,000 g (4° C.). Supernatants were retained and protein concentrations were determined using the bicinchoninic acid assay with bovine serum albumin standards. Protein samples (20 μg) were separated on 10% or 13% SDS-polyacrylamide gels, transferred to nitrocellulose membranes, and probed with antibodies as described in the figure legends. Immunoreactive bands were visualized with a horseradish peroxidase-conjugated secondary antibody using Peroxide and LumiGlo reagents (Cell Signaling).

[2] = target: T1, human mitochondrial WARS2 (Homo sapiens, UniProt Q9UGM6); test: WARS2 AMP-Glo enzyme assay; type: biochemical; conditions: indolmycin 10 micromolar; enzyme 200 nM; 37° C. one hour
T1 construct: GST (inferred from GSH-bead purification; made in house; own inference)
T1 sequence (Q9UGM6 19-360): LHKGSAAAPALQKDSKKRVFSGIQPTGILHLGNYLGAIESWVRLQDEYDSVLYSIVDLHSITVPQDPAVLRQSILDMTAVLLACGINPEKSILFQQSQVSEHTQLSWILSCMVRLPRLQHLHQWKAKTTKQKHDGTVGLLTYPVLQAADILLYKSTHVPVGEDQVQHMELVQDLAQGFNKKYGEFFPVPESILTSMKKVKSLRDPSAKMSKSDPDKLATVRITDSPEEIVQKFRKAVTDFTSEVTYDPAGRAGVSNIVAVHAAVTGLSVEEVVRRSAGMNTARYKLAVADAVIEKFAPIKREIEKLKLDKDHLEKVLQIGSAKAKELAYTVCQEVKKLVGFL
Method: (§1) The WARS and WARS2 enzyme assay was performed using an ATP depletion assay based on a chemilumines optimized with the AMP-Glo™ reagent (Promega) using 96-well format assay. Reaction buffer contained 25 mM Tris-HCL pH7.2, 10 mM MgCl2, 50 mM KCl, 2.5 mM dithiothreitol, 0.1 mg/mL bovine serum albumin, 0.2 mM spermine, 10 U/mL pyrophosphatase and enzyme concentration used was 200 nM. Substrate concentrations were as follows: L-tryptophan 100 μM, bulk E. coli tRNA (Sigma) 200 μg/mL and ATP 100 μM. Reaction was carried out at 37° C. for one hour, followed by adding reagent I (AMP-glo kit). The plate was incubated at room temperature for another hour. At the end of the hour the AMP detection solution was added to all the samples and incubated for one hour at room temperature. Data was collected by measuring the luminescence with the Infinite M200 microplate Reader (Tecan). Indolmycin was added at 10 micromolar concentration where indicated.

human cytosolic WARS = target: T2, human cytosolic WARS (Homo sapiens, UniProt P23381); test: WARS AMP-Glo enzyme assay; type: biochemical; conditions: indolmycin 10 micromolar; enzyme 200 nM; 37° C. one hour
T2 sequence (P23381 1-471): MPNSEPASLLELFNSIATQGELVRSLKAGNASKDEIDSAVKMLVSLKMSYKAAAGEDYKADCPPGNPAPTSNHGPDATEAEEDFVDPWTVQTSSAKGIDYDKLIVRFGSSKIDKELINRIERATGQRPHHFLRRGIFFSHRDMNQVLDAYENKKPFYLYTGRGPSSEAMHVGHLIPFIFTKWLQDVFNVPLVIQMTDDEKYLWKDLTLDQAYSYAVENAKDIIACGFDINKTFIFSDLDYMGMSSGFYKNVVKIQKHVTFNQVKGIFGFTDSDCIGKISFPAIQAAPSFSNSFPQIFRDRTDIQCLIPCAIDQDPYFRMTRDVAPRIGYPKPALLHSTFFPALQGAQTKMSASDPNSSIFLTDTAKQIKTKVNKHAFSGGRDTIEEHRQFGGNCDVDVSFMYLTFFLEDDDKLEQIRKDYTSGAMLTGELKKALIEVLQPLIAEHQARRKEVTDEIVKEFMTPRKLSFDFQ
Method: as §1

WARS secretion = WARS secretion in HUVEC cell media; type: cell-based, human; conditions: HUVEC cells
Method: Human embryonic kidney (HEK) 293 cells were maintained in DMEM supplemented with 10% foetal calf serum and 100 U/ml penicillin and 100 μg/ml streptomycin. Human umbilical vein endothelial (HUVEC) cells and medium (EBM- and EBM-2 single Quats) were purchased from Lonza and used prior to passage 7. For plasmid transfections (for HEK293), cells were seeded a day before at 70% confluence and lipofectamine […] (InvitroGene) transfection reagents were used according to the company's instruction. For HUVEC transfection, Polyplus jetPEI-HUVEC transfection reagent (POLYPLUS-TRANSFECTION Inc. New York) was used according to the company's instruction. For gene transfer, HUVEC were grown to 80% confluence in 6-well plates or T75 flasks. Transduction of cells was performed with a multiplicity of infection (MOI) of 200 plaque-forming units (pfu) in a total volume of 1 ml (6-well plates) or 10 ml (T75 flasks) in HUVEC growth medium. […]
HUVEC cells were seeded in 6-well plates. […] The knockdown efficacy could not be determined by western blot since no antibody against WARS2 can detect endogenous WARS2, although two anti-WARS2 antibodies we made can detect WARS2 in lysates from cells expressing WARS2-flag. […]

Molecule	WARS2 mRNA expression, Experiment 1 (human WARS2 mRNA)	WARS2 mRNA expression, Experiment 2 (human WARS2 mRNA)	WARS2 mRNA expression, Experiment 3 (human WARS2 mRNA)	WARS2 mRNA expression, Experiment 4 (human WARS2 mRNA)	WARS2 mRNA expression, Experiment 5 (human WARS2 mRNA)	WARS2 mRNA expression, Average (human WARS2 mRNA)	other results
Wars2 siRNA: Rat Wars2 siRNA from Dharmacon: sense 5′-GCUCCAAUCAGAAGUGAUU-3′ (SEQ ID NO: 48), antisense 5′-UCACUUCUGAUUGGAGCUU-3′ (SEQ ID NO: 49) (cholesterol-modified siRNA, position of cholesterol not given here)							Wars2 expression in retina and choroid (Wars2): greater inhibition of Wars2 expression; extent of neovascularization [1]: significant reduction in the extent of neovascularization
siRNA 1: Sense 5′-GCAUUCAACCUACAGGAAU-3′ (SEQ ID NO: 50), antisense 5′-AUUCCUGUAGGUUGAAUGC-3′ (SEQ ID NO: 51) (listed as RNA, chemistry not given here)	0.26	0.13	0.18	0.13	0.14	0.17	
siRNA 2: Sense 5′-CCGACAUUCUGUUGUACAA-3′ (SEQ ID NO: 52), antisense 5′-UUGUACAACAGAAUGUCGG-3′ (SEQ ID NO: 53) (listed as RNA, chemistry not given here)	0.47	0.14	0.13	0.11	0.09	0.19	
CC(C)C[C@@H](C=O)NC(=O)[C@H](CC(C)C)NC(=O)[C@H](CC(C)C)NC(=O)OCc1ccccc1 [MG132] (Cbz-Leu-Leu-Leu-aldehyde)							loss of RPL14a caused by over-expression of WARS2 (RPL14a): reversed
CN=C1NC(=O)[C@H]([C@H](C)c2c[nH]c3ccccc23)O1 [indolmycin]							inhibition of WARS2 enzyme activity [2]: inhibited human mitochondrial WARS2; inhibition of WARS enzyme activity (human cytosolic WARS): not human cytosolic WARS activity
C[C@H]1CCC/C=C/[C@@H]2C[C@H](O)C[C@H]2[C@H](O)/C=C/C(=O)O1 [brefeldin A]							WARS secretion in presence of inhibitor of golgi-mediated secretion (WARS secretion): No effect
siRNA 3: Sense 5′-GCUGGACAAGGACCAUUUA-3′ (SEQ ID NO: 54), antisense 5′-UAAAUGGUCCUUGUCCAGC-3′ (SEQ ID NO: 55) (listed as RNA, chemistry not given here)	0.43	0.22	0.43	0.37	0.30	0.35	
